Test results: ChEMBL document CHEMBL1201862, “PubChem BioAssay data set” (2004)
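Dose response: 5 concentrations. Exposure: 48 h. Format: 96-well plates. Endpoint: linear interpolation; highest concentration if not reached. Here, GI50 denotes the concentration required for 50% inhibition of growth.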 Calls of active or inactive are those of the source. No stated cut-off is given here; in the data, active = GI50 up to about 1.1 µM and inactive = higher.

Experiments:
Test in all cases: inhibition of tumour cell growth, NCI panel, 48 h
[1] = tested on: UACC-62
[2] = tested on: OVCAR-8
[3] = tested on: RXF 393
[4] = tested on: IGROV-1
[5] = tested on: HCC 2998
[6] = tested on: RPMI-8226
[7] = tested on: CAKI-1
[8] = tested on: SNB-75
[9] = tested on: NCI-H226
[10] = tested on: LOX IMVI
[11] = tested on: SK-MEL-5
[12] = tested on: HL-60
[13] = tested on: SF-268
[14] = tested on: COLO 205
[15] = tested on: EKVX
[16] = tested on: UO-31
[17] = tested on: TK-10
[18] = tested on: SNB-78
[19] = tested on: Hs-578T
[20] = tested on: PC-3

SMILES	GI50 [1]	GI50 [2]	GI50 [3]	GI50 [4]	GI50 [5]	GI50 [6]	GI50 [7]	GI50 [8]	GI50 [9]	GI50 [10]	GI50 [11]	GI50 [12]	GI50 [13]	GI50 [14]	GI50 [15]	GI50 [16]	GI50 [17]	GI50 [18]	GI50 [19]	GI50 [20]
N#CC(C#N)=C(C(C#N)C#N)C(C#N)C#N	> 100 µM (inactive)	> 100 µM (inactive)	> 100 µM (inactive)	> 100 µM (inactive)	> 100 µM (inactive)	> 100 µM (inactive)	> 100 µM (inactive)	> 100 µM (inactive)	> 100 µM (inactive)	> 100 µM (inactive)	> 100 µM (inactive)	> 100 µM (inactive)	> 100 µM (inactive)	> 100 µM (inactive)	> 100 µM (inactive)	> 100 µM (inactive)	> 100 µM (inactive)	> 100 µM (inactive)		
CCOC(=O)C[C@@]12CCCN[C@]1(C)CCc1ccccc12	> 100 µM (inactive)	> 100 µM (inactive)	> 100 µM (inactive)	> 100 µM (inactive)	> 100 µM (inactive)	> 100 µM (inactive)	> 100 µM (inactive)	> 100 µM (inactive)		> 100 µM (inactive)	> 100 µM (inactive)	> 100 µM (inactive)	> 100 µM (inactive)		> 100 µM (inactive)	> 100 µM (inactive)	> 100 µM (inactive)	> 100 µM (inactive)		
CC(=O)CC(=O)Nc1ccccc1C(F)(F)F	> 100 µM (inactive)	> 100 µM (inactive)	> 100 µM (inactive)	> 100 µM (inactive)	> 100 µM (inactive)	> 100 µM (inactive)	> 100 µM (inactive)	> 100 µM (inactive)	> 100 µM (inactive)	> 100 µM (inactive)	> 100 µM (inactive)	> 100 µM (inactive)	> 100 µM (inactive)	> 100 µM (inactive)	> 100 µM (inactive)	> 100 µM (inactive)	> 100 µM (inactive)	> 100 µM (inactive)		
Cc1ccccc1C(C#N)C(=O)C(=O)Nc1nc([N+](=O)[O-])cs1 (stereo unspecified)	> 100 µM (inactive)	> 100 µM (inactive)	> 100 µM (inactive)	> 100 µM (inactive)	> 100 µM (inactive)		> 100 µM (inactive)	> 100 µM (inactive)	> 100 µM (inactive)	40.2 µM (inactive)	> 100 µM (inactive)	26.2 µM (inactive)	> 100 µM (inactive)		> 100 µM (inactive)	> 100 µM (inactive)	> 100 µM (inactive)	> 100 µM (inactive)		
FC(F)(F)c1ccccc1/C=N/C12CC3CC(CC(C3)C1)C2		> 100 µM (inactive)	> 100 µM (inactive)	> 100 µM (inactive)	> 100 µM (inactive)	> 100 µM (inactive)	> 100 µM (inactive)	86.1 µM (inactive)	> 100 µM (inactive)	> 100 µM (inactive)	6.03 µM (inactive)	> 100 µM (inactive)	> 100 µM (inactive)	> 100 µM (inactive)	> 100 µM (inactive)	0.908 µM (active)	> 100 µM (inactive)	> 100 µM (inactive)		
CS(=O)(=O)c1ccc(-c2cc(-c3ccc(S(C)(=O)=O)cc3)[n+](-c3cc(-c4ccc(S(C)(=O)=O)cc4)c([O-])c(-c4ccc(S(C)(=O)=O)cc4)c3)c(-c3ccc(S(C)(=O)=O)cc3)c2)cc1	> 100 µM (inactive)	> 100 µM (inactive)	> 100 µM (inactive)	> 100 µM (inactive)	> 100 µM (inactive)	> 100 µM (inactive)	> 100 µM (inactive)	> 100 µM (inactive)	> 100 µM (inactive)	> 100 µM (inactive)	> 100 µM (inactive)		> 100 µM (inactive)	> 100 µM (inactive)		> 100 µM (inactive)	> 100 µM (inactive)	> 100 µM (inactive)		
C#CCN(N=O)C(=O)ON1C(=O)CCC1=O	> 100 µM (inactive)	> 100 µM (inactive)	> 100 µM (inactive)	> 100 µM (inactive)		> 100 µM (inactive)		> 100 µM (inactive)		> 100 µM (inactive)	> 100 µM (inactive)	> 100 µM (inactive)	> 100 µM (inactive)	> 100 µM (inactive)	> 100 µM (inactive)	> 100 µM (inactive)	> 100 µM (inactive)	> 100 µM (inactive)		
O=C(O)CCC(NC(=O)c1ccc(Nc2nc3ccccc3nc2-c2cccs2)cc1)C(=O)O (stereo unspecified)	> 100 µM (inactive)	> 100 µM (inactive)	> 100 µM (inactive)	> 100 µM (inactive)	> 100 µM (inactive)	> 100 µM (inactive)	> 100 µM (inactive)	> 100 µM (inactive)	> 100 µM (inactive)	> 100 µM (inactive)	> 100 µM (inactive)	> 100 µM (inactive)	> 100 µM (inactive)		> 100 µM (inactive)	> 100 µM (inactive)	> 100 µM (inactive)	> 100 µM (inactive)		
CCc1ccc(Cc2ccc(CC)c(NC(=O)C(=O)C3NC(=S)NC3=O)c2CC)c(CC)c1NC(=O)C(=O)C1NC(=S)NC1=O (stereo unspecified)	> 100 µM (inactive)	> 100 µM (inactive)	> 100 µM (inactive)	> 100 µM (inactive)	> 100 µM (inactive)	> 100 µM (inactive)	> 100 µM (inactive)	35.2 µM (inactive)		> 100 µM (inactive)	> 100 µM (inactive)	> 100 µM (inactive)	> 100 µM (inactive)	> 100 µM (inactive)	> 100 µM (inactive)	51.8 µM (inactive)	> 100 µM (inactive)	> 100 µM (inactive)		
CCc1ccccc1NC(=O)CCc1nnc(S)[nH]1	> 100 µM (inactive)	> 100 µM (inactive)	> 100 µM (inactive)	> 100 µM (inactive)	> 100 µM (inactive)	> 100 µM (inactive)	> 100 µM (inactive)	> 100 µM (inactive)	> 100 µM (inactive)	> 100 µM (inactive)	> 100 µM (inactive)	> 100 µM (inactive)	> 100 µM (inactive)	> 100 µM (inactive)		> 100 µM (inactive)	> 100 µM (inactive)	> 100 µM (inactive)		
CC1=C(C#N)C(=O)CC(c2ccc(Cl)cc2)N(C)N1 (stereo unspecified)			> 100 µM (inactive)		> 100 µM (inactive)	> 100 µM (inactive)	> 100 µM (inactive)	> 100 µM (inactive)	> 100 µM (inactive)	> 100 µM (inactive)	> 100 µM (inactive)	> 100 µM (inactive)	> 100 µM (inactive)				> 100 µM (inactive)	> 100 µM (inactive)		
CCN(CC)CCSc1c2ccccc2nc2c(OC)ccc(OC)c12	3.77 µM (inactive)	2.43 µM (inactive)	1.94 µM (inactive)	6.32 µM (inactive)		2.23 µM (inactive)	3.1 µM (inactive)	> 49.7 µM (inactive)	29.5 µM (inactive)	4.81 µM (inactive)	4.66 µM (inactive)	1.73 µM (inactive)	15.1 µM (inactive)	2.72 µM (inactive)	> 56.6 µM (inactive)	12.8 µM (inactive)	4.97 µM (inactive)	5.31 µM (inactive)		
C=CC(C)(C)[C@@]12CC3C(=O)N[C@@H](Cc4ccccc4)C(=O)N3[C@@H]1N(C(C)=O)c1ccccc12 (stereo partly specified)	> 100 µM (inactive)	73.5 µM (inactive)		> 100 µM (inactive)		43.2 µM (inactive)		59.8 µM (inactive)	> 100 µM (inactive)	> 100 µM (inactive)	37.2 µM (inactive)	30.3 µM (inactive)		36.5 µM (inactive)	96.4 µM (inactive)	54.8 µM (inactive)	> 100 µM (inactive)	> 100 µM (inactive)		
CN(C)CC1CCC/C(=C\c2ccc(OC(=O)/C=C/c3ccc(Cl)c(Cl)c3)cc2)C1=O (stereo unspecified)	12.3 µM (inactive)	3.92 µM (inactive)	1.88 µM (inactive)	1.47 µM (inactive)	2.92 µM (inactive)	0.164 µM (active)	2.26 µM (inactive)	18.4 µM (inactive)	1.71 µM (inactive)	1.86 µM (inactive)	4.09 µM (inactive)	0.796 µM (active)	9.29 µM (inactive)	1.83 µM (inactive)	5.9 µM (inactive)	2.77 µM (inactive)	1.76 µM (inactive)		4.21 µM (inactive)	3.33 µM (inactive)
CC(C)(C)C(=O)Nc1cccc2oc(-c3ccccc3)cc12	> 100 µM (inactive)	> 100 µM (inactive)	17.3 µM (inactive)	> 100 µM (inactive)	> 100 µM (inactive)	> 100 µM (inactive)	> 100 µM (inactive)	85.1 µM (inactive)				66.2 µM (inactive)		> 100 µM (inactive)	65.3 µM (inactive)	26.2 µM (inactive)		14.1 µM (inactive)		
COc1ccc2[nH]c(C(=O)N3CC(CCl)c4ccc([N+](=O)[O-])cc43)cc2c1 (stereo unspecified)	> 100 µM (inactive)	> 80.9 µM (inactive)	> 65.5 µM (inactive)	64.1 µM (inactive)	> 100 µM (inactive)	> 100 µM (inactive)	> 100 µM (inactive)	> 37.7 µM (inactive)	33.8 µM (inactive)	> 100 µM (inactive)	> 100 µM (inactive)	> 100 µM (inactive)	> 100 µM (inactive)	> 100 µM (inactive)	54.1 µM (inactive)	> 100 µM (inactive)	> 100 µM (inactive)		37 µM (inactive)	> 100 µM (inactive)
